Data reported in ChEMBL document CHEMBL1137324, “Novel selective orally active CRTH2 antagonists for allergic inflammation developed from in silico derived hits” (J Med Chem, 2006).
In brackets after ≈: the same amount, converted by molar mass. Activity calls are given as the source filed them. The rule behind the calls is not given here.

How the values were obtained:
[1] = target: GABA-A receptor; anion channel (Homo sapiens) (UniProt P14867+P47870+P18507+P28472+P48169+Q99928+Q9UN88+P34903+O00591+O14764+Q8N1C3+P18505+P78334+P47869+P31644+Q16445); test: Inhibition of central BZD receptor at 10 uM; type: protein-complex assay
[2] = target: Glucocorticoid receptor (Homo sapiens) (UniProt P04150); test: Inhibition of human glucocorticoid receptor at 10 uM
Homo sapiens [3] = species on record: Homo sapiens; test: Inhibition of human Y receptor at 10 uM
[4] = target: T1, Prostaglandin D2 receptor 2 (Homo sapiens, UniProt Q9Y5Y4); test: Antagonist activity against CRTH2 receptor measured as inhibition of PGD2-induced beta-arrestin translocation in HEK293 cells by BRET assay; type: functional, cell-based
T1 sequence (Q9Y5Y4 whole entry): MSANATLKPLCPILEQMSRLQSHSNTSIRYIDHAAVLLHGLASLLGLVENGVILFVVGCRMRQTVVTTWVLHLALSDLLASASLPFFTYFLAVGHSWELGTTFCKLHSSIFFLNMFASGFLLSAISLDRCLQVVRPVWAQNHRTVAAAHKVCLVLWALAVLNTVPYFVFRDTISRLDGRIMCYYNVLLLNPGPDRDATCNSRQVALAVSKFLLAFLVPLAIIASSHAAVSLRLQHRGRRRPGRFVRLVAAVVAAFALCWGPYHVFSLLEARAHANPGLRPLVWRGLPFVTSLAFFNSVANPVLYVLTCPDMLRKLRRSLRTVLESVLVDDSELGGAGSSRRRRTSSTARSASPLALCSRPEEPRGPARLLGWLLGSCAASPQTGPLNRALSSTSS

[5] = target: Chemerin-like receptor 1 (Homo sapiens) (UniProt Q99788); test: Inhibition of ChemR23 receptor at 10 uM
[6] = target: Vasopressin V1a receptor (Homo sapiens) (UniProt P37288); test: Inhibition of human V1a receptor at 10 uM
[7] = target: Adrenergic receptor alpha-2 (Homo sapiens) (UniProt P08913+P18825+P18089); test: Inhibition of alpha-2 receptor at 10 uM; type: protein assay
[8] = target: Melanocortin receptor 4 (Homo sapiens) (UniProt P32245); test: Inhibition of human MC4 receptor at 10 uM
[9] = target: Type-2 angiotensin II receptor (Homo sapiens) (UniProt P50052); test: Inhibition of human AT2 receptor at 10 uM
[10] = target: Sodium-dependent noradrenaline transporter (Homo sapiens) (UniProt P23975); test: Inhibition of human NE transporter at 10 uM
[11] = target: Prostaglandin G/H synthase 2 (Homo sapiens) (UniProt P35354); test: Inhibition of COX2 at 10 uM
[12] = target: C5a anaphylatoxin chemotactic receptor 1 (Homo sapiens) (UniProt P21730); test: Inhibition of human C5a receptor at 10 uM
[13] = target: Sigma non-opioid intracellular receptor 1 (Homo sapiens) (UniProt Q99720); test: Inhibition of sigma receptor at 10 uM
[14] = target: Adrenergic receptor alpha-1 (Homo sapiens) (UniProt P35348+P25100+P35368); test: Inhibition of alpha1 receptor at 10 uM; type: protein assay
[15] = target: Opioid receptors; mu/kappa/delta (Homo sapiens) (UniProt P41145+P41143+P35372); test: Inhibition of opiate receptor at 10 uM; type: protein assay
[16] = target: T2, Glutamate [NMDA] receptor (Homo sapiens) (UniProt Q05586+Q12879+Q13224+O15399+O60391+Q14957+Q8TCU5); test: Inhibition of human NMDA receptor at 10 uM; type: protein-complex assay
[17] = Bioavailability in rat; type: ADME, organism-based; conditions: in vivo
[18] = target: Prostaglandin D2 receptor (Homo sapiens) (UniProt Q13258); test: Inhibition of human DP receptor at 10 uM
[19] = target: Prostaglandin D2 receptor 2 (Mus musculus, UniProt Q9Z2J6); test: Inhibition of mouse CRTH2 receptor
[20] = Inhibition of neuronal nicotinic receptor at 10 uM
[21] = Permeability from basolateral to apical side of Caco-2 cells; type: ADME, cell-based; conditions: human, read-out: permeability
[22] = target: Adenosine receptor A2a (Homo sapiens) (UniProt P29274); test: Inhibition of human A2A receptor at 10 uM
Homo sapiens [23] = species on record: Homo sapiens; test: Stability in human liver S9 fraction; type: ADME
[24] = target: Histamine H2 receptor (Homo sapiens) (UniProt P25021); test: Inhibition of human H2 receptor at 10 uM
[25] = target: Type-1 angiotensin II receptor (Homo sapiens) (UniProt P30556); test: Inhibition of human AT1 receptor at 10 uM
[26] = target: Gastric inhibitory polypeptide receptor (Homo sapiens) (UniProt P48546); test: Inhibition of GIP receptor at 10 uM
[27] = target: Polyunsaturated fatty acid lipoxygenase ALOX12 (Homo sapiens) (UniProt P18054); test: Inhibition of 12-LO at 10 uM
[28] = target: Substance-P receptor (Homo sapiens) (UniProt P25103); test: Inhibition of human NK1 receptor at 10 uM
[29] = target: T1, Prostaglandin D2 receptor 2; test: Displacement of [3H]PGD2 from human CRTH2 receptor expressed in HEK293 cells; type: cell-based
[30] = target: Serotonin (5-HT) receptor (Homo sapiens) (UniProt P30939+P41595+Q13639+P28222+P46098+P08908+P28221+P28223+P28335+P28566+P34969+P50406+P47898+A5X5Y0+O95264+Q70Z44+Q8WXA8); test: Inhibition of 5-HT receptor at 10 uM; type: protein assay
[31] = target: Platelet-activating factor receptor (Homo sapiens) (UniProt P25105); test: Inhibition of human PAF receptor at 10 uM
[32] = target: Adenosine receptor A1 (Homo sapiens) (UniProt P30542); test: Inhibition of human A1 receptor at 10 uM
[33] = target: Cholecystokinin receptor type A (Homo sapiens) (UniProt P32238); test: Inhibition of human CCKA receptor at 10 uM
[34] = target: B2 bradykinin receptor (Homo sapiens) (UniProt P30411); test: Inhibition of human B2 receptor at 10 uM
[35] = target: Muscarinic acetylcholine receptor (Homo sapiens) (UniProt P20309+P08173+P11229+P08172+P08912); test: Inhibition of human M receptor at 10 uM; type: protein assay
[36] = target: Prostaglandin D2 receptor (Homo sapiens, UniProt Q13258); test: Inhibition of DP1
[37] = target: T2, Glutamate [NMDA] receptor (Homo sapiens); test: Inhibition of human PCP receptor at 10 uM; type: protein-complex assay
[38] = target: Type-2 angiotensin II receptor (Homo sapiens) (UniProt P50052); test: Inhibition of AT2
[39] = Aqueous solubility in PBS at pH 7.4; type: physicochemical
[40] = target: Polyunsaturated fatty acid lipoxygenase ALOX15 (Homo sapiens) (UniProt P16050); test: Inhibition of 15-LO at 10 uM
[41] = target: Somatostatin receptor (Homo sapiens) (UniProt P35346+P30874+P31391+P30872+P32745); test: Inhibition of sst receptor at 10 uM; type: protein assay

Sequence of Type-2 angiotensin II receptor (Homo sapiens) (P50052 whole entry): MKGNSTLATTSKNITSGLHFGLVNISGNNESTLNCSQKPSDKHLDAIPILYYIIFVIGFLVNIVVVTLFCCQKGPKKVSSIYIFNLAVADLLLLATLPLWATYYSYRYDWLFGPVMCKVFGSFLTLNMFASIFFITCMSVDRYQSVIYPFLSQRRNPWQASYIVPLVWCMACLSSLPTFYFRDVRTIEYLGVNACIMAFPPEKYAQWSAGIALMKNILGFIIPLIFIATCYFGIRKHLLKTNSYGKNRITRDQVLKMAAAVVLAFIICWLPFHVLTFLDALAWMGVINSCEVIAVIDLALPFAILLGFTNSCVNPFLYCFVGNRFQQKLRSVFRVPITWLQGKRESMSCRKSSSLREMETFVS
Sequence of Gastric inhibitory polypeptide receptor (Homo sapiens) (P48546 whole entry): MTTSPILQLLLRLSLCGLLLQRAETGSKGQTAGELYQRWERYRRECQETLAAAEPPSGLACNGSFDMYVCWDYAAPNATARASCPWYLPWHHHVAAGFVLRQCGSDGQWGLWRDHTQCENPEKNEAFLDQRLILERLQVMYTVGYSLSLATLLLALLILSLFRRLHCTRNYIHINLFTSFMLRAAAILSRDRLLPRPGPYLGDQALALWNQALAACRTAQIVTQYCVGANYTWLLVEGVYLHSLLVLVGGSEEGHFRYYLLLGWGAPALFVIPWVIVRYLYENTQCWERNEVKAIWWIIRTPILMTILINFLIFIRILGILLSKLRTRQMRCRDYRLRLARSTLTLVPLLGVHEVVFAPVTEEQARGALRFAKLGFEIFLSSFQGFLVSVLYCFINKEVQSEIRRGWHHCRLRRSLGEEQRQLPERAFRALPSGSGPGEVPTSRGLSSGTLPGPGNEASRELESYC
Sequence of Adenosine receptor A2a (Homo sapiens) (P29274 whole entry): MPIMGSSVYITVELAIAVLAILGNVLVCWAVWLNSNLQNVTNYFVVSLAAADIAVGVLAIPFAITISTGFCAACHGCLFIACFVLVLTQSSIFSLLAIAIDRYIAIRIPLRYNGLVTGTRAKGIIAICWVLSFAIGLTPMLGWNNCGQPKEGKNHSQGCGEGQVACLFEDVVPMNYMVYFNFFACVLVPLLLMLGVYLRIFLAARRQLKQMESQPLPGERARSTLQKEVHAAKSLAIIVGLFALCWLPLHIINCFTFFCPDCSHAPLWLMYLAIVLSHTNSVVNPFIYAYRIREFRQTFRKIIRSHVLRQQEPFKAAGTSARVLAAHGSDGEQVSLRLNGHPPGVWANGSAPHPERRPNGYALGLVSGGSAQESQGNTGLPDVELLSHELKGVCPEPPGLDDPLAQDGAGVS
Sequence of Adenosine receptor A1 (Homo sapiens) (P30542 whole entry): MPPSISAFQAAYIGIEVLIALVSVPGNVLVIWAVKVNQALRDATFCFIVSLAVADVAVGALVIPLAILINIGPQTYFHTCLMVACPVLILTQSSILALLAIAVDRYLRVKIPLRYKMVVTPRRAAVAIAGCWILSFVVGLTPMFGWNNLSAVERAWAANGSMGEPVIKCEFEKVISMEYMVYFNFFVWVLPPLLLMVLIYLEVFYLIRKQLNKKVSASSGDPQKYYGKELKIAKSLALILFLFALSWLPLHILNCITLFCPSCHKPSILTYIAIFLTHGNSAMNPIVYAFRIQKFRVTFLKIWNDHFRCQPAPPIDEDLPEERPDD
Sequence of Melanocortin receptor 4 (Homo sapiens) (P32245 whole entry): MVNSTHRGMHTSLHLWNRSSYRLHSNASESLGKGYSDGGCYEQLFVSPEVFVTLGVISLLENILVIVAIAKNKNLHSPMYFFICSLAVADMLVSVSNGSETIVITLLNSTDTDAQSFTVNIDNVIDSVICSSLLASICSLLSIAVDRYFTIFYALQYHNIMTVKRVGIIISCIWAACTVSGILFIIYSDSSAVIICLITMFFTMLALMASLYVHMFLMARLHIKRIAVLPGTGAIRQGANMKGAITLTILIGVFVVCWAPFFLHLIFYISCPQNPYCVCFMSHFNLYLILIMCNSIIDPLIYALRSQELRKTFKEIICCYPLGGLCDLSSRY
Sequence of Sigma non-opioid intracellular receptor 1 (Homo sapiens) (Q99720 whole entry): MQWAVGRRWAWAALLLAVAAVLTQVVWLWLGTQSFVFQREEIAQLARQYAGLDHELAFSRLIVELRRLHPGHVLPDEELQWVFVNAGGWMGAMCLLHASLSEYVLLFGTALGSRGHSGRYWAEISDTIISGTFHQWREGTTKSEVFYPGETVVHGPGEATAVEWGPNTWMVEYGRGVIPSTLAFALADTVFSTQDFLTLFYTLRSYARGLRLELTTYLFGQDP
Sequence of Opioid receptors; mu/kappa/delta (Homo sapiens) (P35372 whole entry, looked up): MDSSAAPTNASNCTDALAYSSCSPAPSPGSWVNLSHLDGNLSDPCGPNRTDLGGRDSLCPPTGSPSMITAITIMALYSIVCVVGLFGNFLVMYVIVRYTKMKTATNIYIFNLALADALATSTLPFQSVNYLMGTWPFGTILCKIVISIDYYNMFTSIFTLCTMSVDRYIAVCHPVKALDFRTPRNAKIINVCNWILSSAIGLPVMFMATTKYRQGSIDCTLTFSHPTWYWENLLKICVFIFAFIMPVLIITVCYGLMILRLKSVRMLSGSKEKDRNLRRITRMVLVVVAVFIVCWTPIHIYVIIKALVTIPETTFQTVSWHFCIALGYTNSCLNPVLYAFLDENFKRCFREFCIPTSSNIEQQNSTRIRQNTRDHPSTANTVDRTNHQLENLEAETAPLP
Sequence of Opioid receptors; mu/kappa/delta (Homo sapiens) (P41143 whole entry, looked up): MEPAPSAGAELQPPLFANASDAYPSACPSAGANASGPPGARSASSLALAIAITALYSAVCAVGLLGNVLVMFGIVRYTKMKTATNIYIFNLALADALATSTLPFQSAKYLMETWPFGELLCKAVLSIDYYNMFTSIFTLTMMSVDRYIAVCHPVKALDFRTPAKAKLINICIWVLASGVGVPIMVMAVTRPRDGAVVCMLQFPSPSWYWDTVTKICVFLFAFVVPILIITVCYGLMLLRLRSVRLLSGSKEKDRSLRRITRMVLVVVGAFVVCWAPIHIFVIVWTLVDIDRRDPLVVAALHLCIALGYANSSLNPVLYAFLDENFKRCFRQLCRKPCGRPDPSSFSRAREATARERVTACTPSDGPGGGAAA
Sequence of Opioid receptors; mu/kappa/delta (Homo sapiens) (P41145 whole entry, looked up): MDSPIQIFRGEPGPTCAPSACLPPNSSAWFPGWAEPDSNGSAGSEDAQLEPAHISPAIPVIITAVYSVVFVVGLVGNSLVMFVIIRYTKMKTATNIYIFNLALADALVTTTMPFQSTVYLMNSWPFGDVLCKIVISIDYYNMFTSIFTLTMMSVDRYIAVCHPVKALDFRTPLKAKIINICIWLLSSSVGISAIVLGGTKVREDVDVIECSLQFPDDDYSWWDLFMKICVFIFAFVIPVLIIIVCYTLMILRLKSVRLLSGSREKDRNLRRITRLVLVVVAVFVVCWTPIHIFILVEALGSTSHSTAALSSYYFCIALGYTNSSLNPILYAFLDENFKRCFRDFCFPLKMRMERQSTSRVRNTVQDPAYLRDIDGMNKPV
Sequence of Polyunsaturated fatty acid lipoxygenase ALOX12 (Homo sapiens) (P18054 whole entry): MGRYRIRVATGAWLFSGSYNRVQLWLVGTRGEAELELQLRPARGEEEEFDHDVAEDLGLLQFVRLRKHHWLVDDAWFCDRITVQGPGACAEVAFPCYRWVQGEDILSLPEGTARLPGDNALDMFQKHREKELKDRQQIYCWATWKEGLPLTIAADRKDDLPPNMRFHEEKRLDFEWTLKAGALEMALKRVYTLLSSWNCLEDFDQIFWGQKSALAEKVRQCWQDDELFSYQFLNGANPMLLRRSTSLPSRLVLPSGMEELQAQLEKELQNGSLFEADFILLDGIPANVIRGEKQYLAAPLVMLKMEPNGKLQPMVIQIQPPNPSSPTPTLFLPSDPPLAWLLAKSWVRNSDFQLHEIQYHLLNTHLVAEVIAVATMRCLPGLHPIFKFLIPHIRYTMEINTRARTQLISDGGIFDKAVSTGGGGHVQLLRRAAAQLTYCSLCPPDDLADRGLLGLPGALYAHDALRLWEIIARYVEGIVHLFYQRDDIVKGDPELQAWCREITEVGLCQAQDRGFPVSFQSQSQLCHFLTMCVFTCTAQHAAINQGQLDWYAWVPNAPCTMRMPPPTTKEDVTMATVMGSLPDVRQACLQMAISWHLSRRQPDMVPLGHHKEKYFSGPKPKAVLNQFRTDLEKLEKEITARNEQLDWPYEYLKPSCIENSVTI
Sequence of Platelet-activating factor receptor (Homo sapiens) (P25105 whole entry): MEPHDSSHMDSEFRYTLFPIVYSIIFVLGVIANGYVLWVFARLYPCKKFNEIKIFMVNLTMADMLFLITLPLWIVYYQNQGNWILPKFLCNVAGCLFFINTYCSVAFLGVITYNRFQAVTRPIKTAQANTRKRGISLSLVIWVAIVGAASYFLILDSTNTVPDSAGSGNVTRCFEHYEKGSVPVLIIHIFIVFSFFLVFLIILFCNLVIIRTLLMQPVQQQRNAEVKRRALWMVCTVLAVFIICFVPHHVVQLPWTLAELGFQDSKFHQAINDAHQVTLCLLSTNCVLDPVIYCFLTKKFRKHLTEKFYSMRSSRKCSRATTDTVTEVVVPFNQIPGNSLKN
Sequence of Vasopressin V1a receptor (Homo sapiens) (P37288 whole entry, looked up): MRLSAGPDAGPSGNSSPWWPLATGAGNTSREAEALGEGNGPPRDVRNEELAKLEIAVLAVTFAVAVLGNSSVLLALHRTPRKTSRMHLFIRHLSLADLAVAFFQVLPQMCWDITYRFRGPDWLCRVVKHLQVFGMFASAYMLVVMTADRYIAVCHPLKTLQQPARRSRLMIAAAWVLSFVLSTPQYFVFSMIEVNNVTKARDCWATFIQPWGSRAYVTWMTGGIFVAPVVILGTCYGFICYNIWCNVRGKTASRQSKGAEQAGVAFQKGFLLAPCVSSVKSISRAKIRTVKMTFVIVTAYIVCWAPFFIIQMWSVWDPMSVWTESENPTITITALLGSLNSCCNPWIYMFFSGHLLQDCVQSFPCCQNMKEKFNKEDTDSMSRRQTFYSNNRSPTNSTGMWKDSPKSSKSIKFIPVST

- inhibition [1]: < 30%
- inhibition [2]: < 30%
- inhibition (Homo sapiens [3]): < 30%
- IC50 [4]: 24 nM
- inhibition [5]: < 30%
- inhibition [6]: < 30%
- inhibition [7]: < 30%
- inhibition [8]: < 30%
- inhibition [9]: < 30%
- inhibition [10]: < 30%
- inhibition [11]: < 20%
- inhibition [13]: < 30%
- inhibition [14]: < 30%
- inhibition [15]: < 30%
- inhibition [16]: < 30%
- bioavailability [17]: 84%
- inhibition [18]: < 30%
- IC50 [19]: 3.2 nM
- inhibition [20]: < 30%
- Papp B→A [21]: 13 ×10⁻⁶ cm/s
- inhibition [22]: < 30%
- Stability (Homo sapiens [23]): 93%
- inhibition [24]: < 30%
- inhibition [25]: < 30%
- inhibition [26]: < 30%
- inhibition [27]: < 20%
- inhibition [28]: < 30%
- IC50 [29]: 1.5 nM
- inhibition [30]: < 30%
- inhibition [31]: < 30%
- inhibition [32]: < 30%
- inhibition [33]: < 30%
- inhibition [34]: < 30%
- inhibition [35]: < 30%
- IC50 [36]: > 100000 nM
- inhibition [37]: < 30%
- Activity [38]: inactive
- solubility [39]: 200 µM (≈ 80.2 µg/mL)
- inhibition [40]: < 20%
- inhibition [41]: < 30%
SMILES: O=C(O)COc1ccc(Br)cc1C(=O)c1cnn(-c2ccccc2)c1
- inhibition [12]: < 30%
